Source: US20050015823A1, “Screening methods employing fish model assessment of vision” (priority 2001, published 2005)

Columns and labels:
[1] = mouse, in vivo; cited from earlier work
fish = experiment: treatment of model fish with test substances (drugs arrayed alone or in combination in the water/wells); assay type: in vivo; conditions: monotherapy
Source text: Fish may be contacted with a test substance, it may be touched or rubbed on their surface or injected into them. A test substance may be added to water in which they are. […] There may be one or multiple fish in each well exposed to the test substance. The test substance may be added prior to the onset of the disease phenotype, concurrent with the onset of the disease phenotype, or subsequent to the onset of the disease phenotype. The same test substance may be added to different wells at different concentration. For example, test substance 1 may be added to well A1 at a concentration of 1 mM, to well A2 at a concentration of 100 uM, to well A3 at a concentration of 10 uM, to well A4 at a concentration of 1 uM and to well A5 at a concentration of 0.1 uM. Then test substance 2 to well B1 etc. The panel of test substances may be known drugs or new chemical entities.
Additionally, the test substances may be added in combination. For example, well A2 may contain test substance 1 ‘and 2, well A3 test substance 1 and 3, well B2 test substance 2 and 3. Alternatively, every well may contain test substance x, with individual wells containing a panel of additional test substances.
In other options, a population of fish in a petri dish or a tank may be employed and treated together, e.g. via addition of one or more or a combination of test substances in the water. […]

| SMILES | toxicity [1] | concentration showing therapeutic effects (fish) [µM] |
| --- | --- | --- |
| C[C@H]1c2cccc(O)c2C(=O)C2=C(O)[C@]3(O)C(=O)C(C(N)=O)=C(O)[C@@H](N(C)C)[C@@H]3[C@@H](O)[C@@H]21 [Doxycycline, doxycycline] | no apparent toxicity |  |
| CN1C(=O)CN=C(c2ccccc2)c2cc(Cl)ccc21 [diazepam] |  | 35 |
